Assay results reported in US20260021167A1, “COMPOSITIONS AND METHODS FOR TREATING OR PREVENTING NEURODEGENERATIVE DISEASES” (Delaware State University, priority 2022, published 2026).

Columns and labels:
Type in all cases: in vivo, mouse
[1] = tested on: PFF-injected old mice; test: Nesting in PFF-injected mice; details: 10 and/or 50 mg/kg oral, vs PFF only
Method: (§1) A mouse model of Parkinson's disease is C57BL/6 male or female mice (50% each) injected with 5 μg of mouse PFF at 12 months old, followed by a treatment below for 6-7 weeks: • 1) without PFF injection, followed by vehicle (control, n=7); • 2) PFF injection, followed by vehicle (PFF only: control, n=8); • 3) PFF injection, followed by daily 10 mg/kg Momordin gavage (n=7-8); • 4) PFF injection, followed by daily 50 mg/kg Momordin gavage (n=7-8).
Nesting. A 5×5 cm cotton nesting patch was placed in a clean cage housing a single animal. On the following day, pictures were taken of the condition of the nesting material utilized and analyzed in a blind manner. The ability of an animal to tear up the cotton nesting material and build a nest dictates the activity and motor coordination levels of the animal. Three dimensionally built nest was given as 5 points as the highest score, and a barely touched nesting patch was considered a low score of 1 point. The points were represented on the graph to show any improvement in nesting capabilities across the groups.

[2] = tested on: SUMO-1; test: Western blot of SUMO-1 in brain tissue extracts of PFF-injected mice; details: vs PFF only
Method: as §1
Immunoblot Analyses. A total of three protein extractions were performed. In the first extraction, a gentle RIPA buffer containing the low concentration of detergent (25 mM Tris-HCL, 150 mM NaCl, 1% NP-40, 1% sodium deoxycholate and 0.1% SDS) was added with phosphatase inhibitors (100 μL for 10 mL) and 5 mM EDTA. The mixture was sonicated and centrifuged at 14,000 rpm for 10 min. The supernatant was collected for measuring the levels of phosphorylated α-syn, SENP-1 or SUMO-1 conjugated proteins for different groups. […] The primary antibodies pertaining to each protein analyzed were diluted at 1:1000 (p-Ser-129-α-synuclein, Cell signaling; SENP-1, SAB4501345, EMD) and incubated at 4° C. overnight. […] ImageJ was used to analyze specific bands on each blot and measured against the loading control (β-actin) for normalizing each band intensity.

[3] = tested on: PFF-injected mice; test: Behavioral tests overall in PFF-injected mice; details: 10 or 50 mg/kg oral
Method: as §1
Behavioral tests were performed using the methods described in Ghosh et al. (Int J Mol Sci. 2022 Apr. 12; 23 (8): 4262) (FIG. 11A).

## CC1(C)CC[C@]2(C(=O)O)CC[C@]3(C)C(=CC[C@@H]4[C@@]5(C)CC[C@H](O[C@@H]6O[C@H](C(=O)O)[C@@H](O)[C@H](O[C@@H]7OC[C@@H](O)[C@H](O)[C@H]7O)[C@H]6O)C(C)(C)[C@@H]5CC[C@]43C)[C@@H]2C1 [Momordin lc]
[1]
  nesting: improves the nesting
[2]; midbrain
  level of SUMO-1 in the MB (Western blot, tissue extracts): enhanced level of SUMO-1
[2]; striatum
  level of SUMO-1 in the STR (Western blot, tissue extracts): enhanced level of SUMO-1
[3]
  behavioral / motor deficits derived from PFF injection: improved the behavioral deficits
[3]; listed as Momordin
  behavioral / motor deficits derived from PFF injection: alleviates severe motor deficits
